From US20260250741A1, “DEVELOPMENT OF CELL MEDIUM AND FEED ON MAMMALIAN CELLS” (Evonik Operations GmbH, priority 2023, published 2026)

Experiments:
[1] = test system: Agarabi CHO (ATCC® CRL-3440™); details: FDR corrected p-value <0.05 and methylation change greater than 25% between groups; cell pellets day 7
Description: Genomic DNA was purified from the collected cell pellets using DNeasy Blood & Tissue Kit (Qiagen) and was quantified using PicroGreen or NanoDrop™ 2000. The genomic DNA (500 ng) from the control and treatment set were used to prepare libraries for Whole Genome Bisulfite Sequencing (WGBS). The sequencing of the libraries was performed by a third party on a NovaSeq platform which generated 125 GB of data per sample.
Raw sequencing data were conducted quality control (fastqc) 1, sequencing adaptors trimming (TrimGalore) 2, and alignment with Bismark3. CMV promoter combined with CHOK1-GS (Cricetulus griseus) genome was used as a reference genome.
Bismark was also used for removing duplicated reads and extracting methylation counts from alignment output.
Since regulated methylation targets are most commonly clustered into short regions, DMRfinder4 was used to perform a modified single-linkage clustering of methylation sites.
Differential methylation analysis was performed using MethylKit5 between the control and treatment groups. Logistic regression was used to determine the differential methylation across all regions, and the sliding linear model (SLIM) 6 method to do FDR correction.

[2] = test system: Agarabi CHO (ATCC® CRL-3440™); details: 120 μM added every 48 hrs, 7 day batch culture, CD FortiCHO + 8 mM L-glutamine
Description: For this experiment, a transgenic CHO cell line, Agarabi CHO (ATCC® CRL-3440™), was grown in CD FortiCHO medium supplemented with 8 mM L-glutamine at 37° C., 8% CO2, at a shaking speed of 130 RPM. Batch culture of 6 flasks was maintained for 7 days where 3 flasks represent technical replicates for the control set and 3 flasks represent technical replicates for the treatment set. The flasks were seeded with 3E5 viable cells/mL on day 0 and to induce oxidative stress, hydrogen peroxide was added every 48 hrs to the treatment set with a final concentration of 120 μM. Cell count, cell viability, and heterologous protein production were measured every 2 days and cell pellets were collected for both control and treatment set on day 7.

[3] = test system: Agarabi CHO (ATCCR CRL-3440™); assay: WGBS differential methylation analysis, IGF-1 adapted vs control; type: cell-based, Cricetulus griseus; details: FDR corrected p-value <0.05 and methylation change greater than 25% between groups; cell pellets day 7
Description: With a maximum distance between CpG sites of 100 bp, 2048904 genomic regions were found for IGF-1 adapted samples.
Regions with FDR corrected p-value <0.05 and methylation change greater than 25% between groups were determined as differentially methylated regions (DMRs), which was 289 for IGF-1 adapted samples listed in Table 2.

[4] = test system: Agarabi CHO (ATCCR CRL-3440™); assay: Adaptation of CHO cells with media supplement, batch culture (cell count, viability, protein production); type: cell-based, Cricetulus griseus; details: 1 mg/L, adapted for 2 weeks, 7 day batch culture, CD FortiCHO + 8 mM L-glutamine
Description: For this experiment, a transgenic CHO cell line, Agarabi CHO (ATCCR CRL-3440™), was adapted for 2 weeks in CD FortiCHO medium supplemented with 8 mM L-glutamine & 1 mg/L human insulin-like growth factor 1 (IGF-1) at 37° C., 8% CO2, at a shaking speed of 130 RPM. Batch culture of 6 flasks was maintained for 7 days where 3 flasks represent technical replicates for the control set (without IGF-1 adaptation) and 3 flasks represent technical replicates for the IGF-1 adapted set. The flasks were seeded with 3E5 viable cells/mL on day 0 and 1 mg/L Insulin Growth Factor was added to the adapted set. Cell count, cell viability, and protein production were measured every 2 days and cell pellets were collected for both control and treatment set on day 7.

Compound	number of differentially methylated regions (DMRs) [1]	cell viability compared to control set [2]	growth rate compared to control set [2]	heterologous protein productivity compared to control set [2]	number of differentially methylated regions (DMRs) [3]	growth rate compared to control set [4]	heterologous protein productivity compared to control set [4]	viability compared to control set [4]
OO [hydrogen peroxide]	122	reduced	reduced	slight increase				
IGF-1: human insulin-like growth factor 1, media supplement for CHO cells					289	no significant effect	doubled	no significant effect
